# Source: PubChem BioAssay AID1963828 (Molecular Pharmacology Branch, DTP, NCI, 2024)
# Test system: 991263-137-R1-J2-PDC complex spheroid viability
# Assay: Anticancer human tumor 991263-137-R1-J2-PDC patient-derived colon adenocarcinoma cell line growth inhibition [POLQ]
# Details: for IC50: curve of first compound; for viability, T/C: stronger effect = lower value
# Summary of the method: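 Three-cell-type spheroids modelling solid tumor plus stroma served as the readout system; POL inhibitors were tested individually and in combination, concentration ranges set by clinical Cmax where known.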
# [1] = second compound 0.0316 µM, first compound 0.0316 µM
# [2] = second compound 0.0316 µM, first compound 0.1 µM
# [3] = second compound 0.0316 µM, first compound 0.316 µM
# [4] = second compound 0.0316 µM, first compound 1 µM
# [5] = second compound 0.0316 µM, first compound 3.16 µM
# [6] = second compound 0.0316 µM, first compound 10 µM
# [7] = second compound 0.1 µM, first compound 0.0316 µM
# [8] = second compound 0.1 µM, first compound 0.1 µM
# [9] = second compound 0.1 µM, first compound 0.316 µM
# [10] = second compound 0.1 µM, first compound 1 µM
# [11] = second compound 0.1 µM, first compound 3.16 µM
# [12] = second compound 0.1 µM, first compound 10 µM
# [13] = second compound 0.316 µM, first compound 0.0316 µM
# [14] = second compound 0.316 µM, first compound 0.1 µM
# [15] = second compound 0.316 µM, first compound 0.316 µM
# [16] = second compound 0.316 µM, first compound 1 µM
# [17] = second compound 0.316 µM, first compound 3.16 µM
# [18] = second compound 0.316 µM, first compound 10 µM
# [19] = second compound 1 µM, first compound 0.0316 µM
# [20] = second compound 1 µM, first compound 0.1 µM
# [21] = second compound 1 µM, first compound 0.316 µM
# [22] = second compound 1 µM, first compound 1 µM
# [23] = second compound 1 µM, first compound 3.16 µM
# [24] = second compound 1 µM, first compound 10 µM
# [25] = second compound 3.16 µM, first compound 0.0316 µM
# [26] = second compound 3.16 µM, first compound 0.1 µM
# [27] = second compound 3.16 µM, first compound 0.316 µM
# [28] = second compound 3.16 µM, first compound 1 µM
# [29] = second compound 3.16 µM, first compound 3.16 µM
# [30] = second compound 3.16 µM, first compound 10 µM
# [31] = second compound 10 µM, first compound 0.0316 µM
# [32] = second compound 10 µM, first compound 0.1 µM
# [33] = second compound 10 µM, first compound 0.316 µM
# [34] = second compound 10 µM, first compound 1 µM
# [35] = second compound 10 µM, first compound 3.16 µM
# [36] = second compound 10 µM, first compound 10 µM
# 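Note: spheroids exposed to compounds for 7 days before readout.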
# 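Throughout, for viability, T/C: 100% = DMSO vehicle control viability.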
smiles,measurement,setting,value
CC(=O)O[C@H]1C(=O)[C@@]2(C)[C@H]([C@H](OC(=O)c3ccccc3)[C@]3(O)C[C@H](OC(=O)[C@H](O)[C@@H](NC(=O)c4ccccc4)c4ccccc4)C(C)=C1C3(C)C)[C@]1(OC(C)=O)CO[C@@H]1C[C@@H]2O + COC1C(OC(N)=O)C(O)C(Oc2ccc3c(O)c(NC(=O)c4ccc(O)c(CC=C(C)C)c4)c(=O)oc3c2C)OC1(C)C,IC50,second compound 0.0316 µM,> 3000 nM
same,IC50,second compound 0.1 µM,1950 nM
same,IC50,second compound 0.316 µM,1580 nM
same,IC50,second compound 1 µM,1540 nM
same,IC50,second compound 3.16 µM,1850 nM
same,IC50,second compound 10 µM,1700 nM
same,"viability, T/C","second compound 0.0316 µM, first compound 0.00949 µM",90%
same,"viability, T/C","second compound 0.0316 µM, first compound 0.03 µM",100%
same,"viability, T/C","second compound 0.0316 µM, first compound 0.0949 µM",75.2%
same,"viability, T/C","second compound 0.0316 µM, first compound 0.3 µM",54.2%
same,"viability, T/C","second compound 0.0316 µM, first compound 0.949 µM",51.6%
same,"viability, T/C","second compound 0.0316 µM, first compound 3 µM",48.9%
same,"viability, T/C","second compound 0.1 µM, first compound 0.00949 µM",100%
same,"viability, T/C","second compound 0.1 µM, first compound 0.03 µM",90.3%
same,"viability, T/C","second compound 0.1 µM, first compound 0.0949 µM",78.7%
same,"viability, T/C","second compound 0.1 µM, first compound 0.3 µM",83%
same,"viability, T/C","second compound 0.1 µM, first compound 0.949 µM",58.8%
same,"viability, T/C","second compound 0.1 µM, first compound 3 µM",43%
same,"viability, T/C","second compound 0.316 µM, first compound 0.00949 µM",103%
same,"viability, T/C","second compound 0.316 µM, first compound 0.03 µM",97%
same,"viability, T/C","second compound 0.316 µM, first compound 0.0949 µM",75.5%
same,"viability, T/C","second compound 0.316 µM, first compound 0.3 µM",74.3%
same,"viability, T/C","second compound 0.316 µM, first compound 0.949 µM",50.3%
same,"viability, T/C","second compound 0.316 µM, first compound 3 µM",45.4%
same,"viability, T/C","second compound 1 µM, first compound 0.00949 µM",93.2%
same,"viability, T/C","second compound 1 µM, first compound 0.03 µM",97.5%
same,"viability, T/C","second compound 1 µM, first compound 0.0949 µM",83.8%
same,"viability, T/C","second compound 1 µM, first compound 0.3 µM",74.1%
same,"viability, T/C","second compound 1 µM, first compound 0.949 µM",55.6%
same,"viability, T/C","second compound 1 µM, first compound 3 µM",42.1%
same,"viability, T/C","second compound 3.16 µM, first compound 0.00949 µM",96.2%
same,"viability, T/C","second compound 3.16 µM, first compound 0.03 µM",83.5%
same,"viability, T/C","second compound 3.16 µM, first compound 0.0949 µM",81.4%
same,"viability, T/C","second compound 3.16 µM, first compound 0.3 µM",70.6%
same,"viability, T/C","second compound 3.16 µM, first compound 0.949 µM",54.5%
same,"viability, T/C","second compound 3.16 µM, first compound 3 µM",45.7%
same,"viability, T/C","second compound 10 µM, first compound 0.00949 µM",86.7%
same,"viability, T/C","second compound 10 µM, first compound 0.03 µM",91.2%
same,"viability, T/C","second compound 10 µM, first compound 0.0949 µM",96%
same,"viability, T/C","second compound 10 µM, first compound 0.3 µM",81%
same,"viability, T/C","second compound 10 µM, first compound 0.949 µM",57.1%
same,"viability, T/C","second compound 10 µM, first compound 3 µM",43.4%
COc1cc(C2c3cc4c(cc3C(OC3OC5COC(C)OC5C(O)C3O)C3COC(=O)C23)OCO4)cc(OC)c1O (stereo unspecified) + COC1C(OC(N)=O)C(O)C(Oc2ccc3c(O)c(NC(=O)c4ccc(O)c(CC=C(C)C)c4)c(=O)oc3c2C)OC1(C)C,IC50,second compound 0.0316 µM,> 10000 nM
same,IC50,second compound 0.1 µM,> 10000 nM
same,IC50,second compound 0.316 µM,> 10000 nM
same,IC50,second compound 1 µM,> 10000 nM
same,IC50,second compound 3.16 µM,> 10000 nM
same,IC50,second compound 10 µM,> 10000 nM
same,"viability, T/C",[1],120%
same,"viability, T/C",[2],105%
same,"viability, T/C",[3],98.9%
same,"viability, T/C",[4],94.9%
same,"viability, T/C",[5],98.2%
same,"viability, T/C",[6],76.1%
same,"viability, T/C",[7],118%
same,"viability, T/C",[8],108%
same,"viability, T/C",[9],118%
same,"viability, T/C",[10],92%
same,"viability, T/C",[11],95.9%
same,"viability, T/C",[12],83.3%
same,"viability, T/C",[13],95.7%
same,"viability, T/C",[14],104%
same,"viability, T/C",[15],96.1%
same,"viability, T/C",[16],90.3%
same,"viability, T/C",[17],84.8%
same,"viability, T/C",[18],73.1%
same,"viability, T/C",[19],107%
same,"viability, T/C",[20],99.1%
same,"viability, T/C",[21],100%
same,"viability, T/C",[22],83.2%
same,"viability, T/C",[23],106%
same,"viability, T/C",[24],94%
same,"viability, T/C",[25],96.2%
same,"viability, T/C",[26],113%
same,"viability, T/C",[27],109%
same,"viability, T/C",[28],115%
same,"viability, T/C",[29],97.6%
same,"viability, T/C",[30],72.3%
same,"viability, T/C",[31],83.9%
same,"viability, T/C",[32],115%
same,"viability, T/C",[33],98.9%
same,"viability, T/C",[34],91.2%
same,"viability, T/C",[35],101%
same,"viability, T/C",[36],80.8%
COc1cccc2c1C(=O)c1c(O)c3c(c(O)c1C2=O)CC(O)(C(=O)CO)CC3OC1CC(N)C(O)C(C)O1 (stereo unspecified) + COC1C(OC(N)=O)C(O)C(Oc2ccc3c(O)c(NC(=O)c4ccc(O)c(CC=C(C)C)c4)c(=O)oc3c2C)OC1(C)C,IC50,second compound 0.0316 µM,1540 nM
same,IC50,second compound 0.1 µM,1210 nM
same,IC50,second compound 0.316 µM,1180 nM
same,IC50,second compound 1 µM,1130 nM
same,IC50,second compound 3.16 µM,1600 nM
same,IC50,second compound 10 µM,1030 nM
same,"viability, T/C",[1],116%
same,"viability, T/C",[2],101%
same,"viability, T/C",[3],93.3%
same,"viability, T/C",[4],55.7%
same,"viability, T/C",[5],38.1%
same,"viability, T/C",[6],31.1%
same,"viability, T/C",[7],104%
same,"viability, T/C",[8],115%
same,"viability, T/C",[9],92.5%
same,"viability, T/C",[10],51.9%
same,"viability, T/C",[11],45.1%
same,"viability, T/C",[12],34.9%
same,"viability, T/C",[13],107%
same,"viability, T/C",[14],116%
same,"viability, T/C",[15],76%
same,"viability, T/C",[16],55.4%
same,"viability, T/C",[17],43.1%
same,"viability, T/C",[18],33.1%
same,"viability, T/C",[19],101%
same,"viability, T/C",[20],120%
same,"viability, T/C",[21],93.1%
same,"viability, T/C",[22],51.5%
same,"viability, T/C",[23],39.6%
same,"viability, T/C",[24],27.4%
same,"viability, T/C",[25],109%
same,"viability, T/C",[26],109%
same,"viability, T/C",[27],92.2%
same,"viability, T/C",[28],56.6%
same,"viability, T/C",[29],41.9%
same,"viability, T/C",[30],31.8%
same,"viability, T/C",[31],88.1%
same,"viability, T/C",[32],106%
same,"viability, T/C",[33],102%
same,"viability, T/C",[34],50.1%
same,"viability, T/C",[35],56.2%
same,"viability, T/C",[36],33.9%
